For 29 compounds, IC50 results are on record in patent US11104690B2, “Indazole derivatives useful as inhibitors of diacylglyceride O-acyltransferase 2” (Merck Sharp & Dohme Corp., priority 2016, dated 2021).

Human DGAT2, sequence (Q96PD7 whole entry): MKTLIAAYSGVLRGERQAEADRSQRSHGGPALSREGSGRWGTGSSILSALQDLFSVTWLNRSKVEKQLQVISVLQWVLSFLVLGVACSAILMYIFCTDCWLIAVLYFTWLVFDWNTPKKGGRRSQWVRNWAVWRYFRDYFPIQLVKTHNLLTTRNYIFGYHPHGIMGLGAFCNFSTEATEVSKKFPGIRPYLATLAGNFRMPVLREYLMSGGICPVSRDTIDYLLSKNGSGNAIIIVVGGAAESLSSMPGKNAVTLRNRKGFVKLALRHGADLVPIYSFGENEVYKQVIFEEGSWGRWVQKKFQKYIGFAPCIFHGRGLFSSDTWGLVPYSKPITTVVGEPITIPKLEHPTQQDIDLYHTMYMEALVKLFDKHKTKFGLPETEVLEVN

The target of the assay is Human DGAT2 (Homo sapiens (Human), UniProt Q96PD7). The experiment in a line: DGAT2 Enzymatic Activity Assay (triolein formation, LC/MS/MS). To be noted: hDGAT2 Sf-9 membrane prep; 25 μM diolein, 10 μM oleoyl-CoA; room temperature. Type of assay: biochemical. The gist of the method:
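Membranes from Sf-9 cells infected with untagged hDGAT2 baculovirus, 10 ng/μL, at room temperature in 100 mM Tris.Cl pH 7.0, 20 mM MgCl2, 5% ethanol with 25 μM diolein and 10 μM oleoyl-CoA. Triolein quantified by LC/MS/MS against spiked internal standard; IC50 from 4-parameter sigmoidal fit.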
As usually defined, the IC50 is the concentration needed to halve the response being measured. High values mean weaker potency in that assay, low ones greater potency in that assay. In the case of `Cc1n[nH]c(C)c1C(C)NC(=O)c1ccc2c(-c3ccccc3Cl)nn(-c3ccc(F)cc3)c2c1` (racemic) [Example 17, 3-(2-chlorophenyl)-N-[1-(3,5-dimethyl-1H-pyrazol-4-yl)ethyl]-1-(4-fluorophenyl)-1H-indazole-6-carboxamide], the concentration for half-maximal inhibition (IC50) came to 83 nM. In the case of `O=C(N[C@@H]1C[C@H](CO)[C@@H](O)[C@H]1O)c1ccc2c(-c3ccccc3Cl)nn(-c3ccc(F)cc3)c2c1` [Example 87, 3-(2-chlorophenyl)-N-[(1R,2S,3R,4R)-2,3-dihydroxy-4-(hydroxymethyl)cyclopentyl]-1-(4-fluorophenyl)-1H-indazole-6-carboxamide], half-maximal inhibition (IC50) required 198 nM. In turn, `O=C(N[C@@H](CO)[C@@H](O)c1ccccc1)c1ccc2c(-c3ccccc3Cl)nn(-c3ccc(F)cc3)c2c1` [Example 80, 3-(2-chlorophenyl)-1-(4-fluorophenyl)-N-[(1S,2S)-2-hydroxy-1-(hydroxymethyl)-2-phenylethyl]-1H-indazole-6-carboxamide] displayed an IC50 of 127 nM. With `Cn1cc(C(C)(C)NC(=O)c2ccc3c(-c4ccccc4Cl)nn(-c4ccc(F)cc4)c3c2)cn1` [Example 16, 3-(2-chlorophenyl)-1-(4-fluorophenyl)-N-[1-methyl-1-(1-methyl-1H-pyrazol-4-yl)ethyl]-1H-indazole-6-carboxamide] the figure was 120 nM.

For the compound `CC(C)(O)C1(NC(=O)c2ccc3c(-c4ccccc4Cl)nn(-c4ccc(F)cc4)c3c2)CCOCC1` [Example 70, 3-(2-chlorophenyl)-1-(4-fluorophenyl)-N-[4-(1-hydroxy-1-methylethyl)tetrahydro-2H-pyran-4-yl]-1H-indazole-6-carboxamide], half-maximal inhibition (IC50) required 607 nM. With `C[C@H](CO)NC(=O)c1ccc2c(-c3ccccc3Cl)nn(-c3ccc(F)cc3)c2c1` [Example 79, 3-(2-chlorophenyl)-1-(4-fluorophenyl)-N-[(1R)-hydroxy-1-methylethyl]-1H-indazole-6-carboxamide], 772 nM corresponded to half-maximal inhibition (IC50). The compound `O=C(NC1(CO)CCOCC1)c1ccc2c(-c3ccccc3Cl)nn(-c3ccc(F)cc3)c2c1` [Example 47, 3-(2-chlorophenyl)-1-(4-fluorophenyl)-N-[4-(hydroxymethyl)tetrahydro-2H-pyran-4-yl]-1H-indazole-6-carboxamide] came in with a half-maximal inhibitory concentration (IC50) of 47 nM. With `NS(=O)(=O)CCNC(=O)c1ccc2c(-c3ccccc3Cl)nn(-c3ccc(F)cc3)c2c1` [Example 20, 3-(2-chlorophenyl)-1-(4-fluorophenyl)-N-(2-sulfamoylethyl)-1H-indazole-6-carboxamide] the figure was 148 nM. Regarding `O=C(NC1CCS(=O)(=O)C1)c1ccc2c(-c3ccccc3Cl)nn(-c3ccc(Cl)cn3)c2c1` (single isomer, unassigned) [Example 173-A, 3-(2-chlorophenyl)-1-(5-chloropyridin-2-yl)-N-(1,1-dioxidotetrahydrothiophen-3-yl)-1H-indazole-6-carboxamide], the IC50 is 23 nM. As to `N#Cc1cccc(-c2nn(-c3ccc(F)cc3)c3cc(C(=O)NC4CCS(=O)(=O)C4)ccc23)c1` (centres unmarked) [Example 116, 3-(3-cyanophenyl)-N-(1,1-dioxidotetrahydrothiophen-3-yl)-1-(4-fluorophenyl)-1H-indazole-6-carboxamide], the IC50 was found to be 359 nM. The same measure for `O=C(NC1(CO)CCc2ccccc21)c1ccc2c(-c3ccccc3Cl)nn(-c3ccc(F)cc3)c2c1` (racemic) [Example 75, 3-(2-chlorophenyl)-1-(4-fluorophenyl)-N-[1-(hydroxymethyl)-2,3-dihydro-1H-inden-1-yl]-1H-indazole-6-carboxamide]: 357 nM; for `CC(NC(=O)c1ccc2c(-c3ccccc3Cl)nn(-c3ccc(F)cc3)c2c1)c1nncn1C` (racemic) [Example 36, 3-(2-chlorophenyl)-1-(4-fluorophenyl)-N-[1-(4-methyl-4H-1,2,4-triazol-3-yl)ethyl]-1H-indazole-6-carboxamide]: 889 nM. With `COc1ccc(-c2nn(-c3ccc(F)cc3)c3cc(C(=O)NC4(C)CCS(=O)(=O)C4)ccc23)cn1` (single isomer, unassigned) [Example 155-A, 1-(4-fluorophenyl)-3-(6-methoxypyridin-3-yl)-N-(3-methyl-1,1-dioxidotetrahydrothiophen-3-yl)-1H-indazole-6-carboxamide] the figure was 353 nM. The same measure for `CC(CO)(CO)NC(=O)c1ccc2c(-c3ccccc3Cl)nn(-c3ccc(F)cc3)c2c1` [Example 46, 3-(2-chlorophenyl)-1-(4-fluorophenyl)-N-[2-hydroxy-1-(hydroxymethyl)-1-methylethyl]-1H-indazole-6-carboxamide]: 49 nM; for `C[C@@H](NC(=O)c1ccc2c(-c3ccccc3Cl)nn(-c3ccc(F)cc3)c2c1)c1cnc(C(F)(F)F)nc1` [Example 4, 3-(2-chlorophenyl)-1-(4-fluorophenyl)-N-{(1R)-1-[2-(trifluoromethyl)pyrimidin-5-yl]ethyl}-1H-indazole-6-carboxamide]: 67 nM. In turn, `O=C(NC1CCS(=O)(=O)C1)c1ccc2c(-c3ccccc3Cl)nn(-c3ccccn3)c2c1` (single isomer, unassigned) [Example 175-A, 3-(2-chlorophenyl)-N-(1,1-dioxidotetrahydrothiophen-3-yl)-1-pyridin-2-yl-1H-indazole-6-carboxamide] gave an IC50 of 338 nM. The same measure for `CC1(NC(=O)c2ccc3c(-c4ccccc4Cl)nn(-c4nnc(C5CC5)s4)c3c2)CCS(=O)(=O)C1` (racemic) [Example 190, 3-(2-chlorophenyl)-1-(5-cyclopropyl-1,3,4-thiadiazol-2-yl)-N-(3-methyl-1,1-dioxidotetrahydrothiophen-3-yl)-1H-indazole-6-carboxamide]: 45 nM.

The compound `O=C(NCC1CCS(=O)(=O)C1)c1ccc2c(-c3ccccc3Cl)nn(-c3ccc(F)cc3)c2c1` (racemic) [Example 29, 3-(2-chlorophenyl)-N-[(1,1-dioxidotetrahydrothiophen-3-yl)methyl]-1-(4-fluorophenyl)-1H-indazole-6-carboxamide] returned a half-inhibitory concentration (IC50) of 65 nM. As to `COC(=O)C1(NC(=O)c2ccc3c(-c4ccccc4Cl)nn(-c4ccc(F)cc4)c3c2)CCCC1` [Example 63, methyl 1-({[3-(2-chlorophenyl)-1-(4-fluorophenyl)-1H-indazol-6-yl]carbonyl}amino)cyclopentane-carboxylate], the IC50 came to 405 nM.

Turning to `COC[C@H](NC(=O)c1ccc2c(-c3ccccc3Cl)nn(-c3ccc(F)cc3)c2c1)[C@@H](O)c1ccccc1` [Example 74, 3-(2-chlorophenyl)-1-(4-fluorophenyl)-N-[(1S,2S)-2-hydroxy-1-(methoxymethyl)-2-phenylethyl]-1H-indazole-6-carboxamide], the half-inhibitory concentration (IC50) was 16 nM. For the compound `O=C(NCc1ccccn1)c1ccc2c(-c3ccccc3Cl)nn(-c3ccc(F)cc3)c2c1` [Example 32, 3-(2-chlorophenyl)-1-(4-fluorophenyl)-N-(pyridin-2-ylmethyl)-1H-indazole-6-carboxamide], inhibition was half-maximal at 495 nM (IC50).

For `COC(=O)c1cccc(-n2nc(-c3ccccc3Cl)c3ccc(C(=O)NC4(C)CCS(=O)(=O)C4)cc32)c1` (racemic) [Example 180, methyl 3-{3-(2-chlorophenyl)-6-[(3-methyl-1,1-dioxidotetrahydrodioxidotetra-hydrodioxidotetrahydrodioxido-tetrahydro-thiophen-3-yl)carbamoyl]-1H-indazol-1-yl}benzoate], half-maximal inhibition (IC50) required 222 nM. Take `CC(C)(C)OC(=O)N1CCS(=O)(=O)CC(NC(=O)c2ccc3c(-c4ccccc4Cl)nn(-c4ccc(F)cc4)c3c2)C1` (racemic) [Example 91, tert-butyl 6-({[3-(2-chlorophenyl)-1-(4-fluorophenyl)-1H-indazol-6-yl]carbonyl}amino)-1,4-thiazepane-4-carboxylate 1,1-dioxide]: the IC50 stood at 572 nM. `CC1(NC(=O)c2ccc3c(-c4cccnc4F)nn(-c4ccc(F)cc4)c3c2)CCS(=O)(=O)C1` (single isomer, unassigned) [Example 154-A, 1-(4-fluorophenyl)-3-(2-fluoropyridin-3-yl)-N-(3-methyl-1,1-dioxidotetrahydrothiophen-3-yl)-1H-indazole-6-carboxamide] displayed a half-maximal inhibitory concentration (IC50) of 17 nM.

For the compound `CN1CCC(NC(=O)c2ccc3c(-c4ccccc4Cl)nn(-c4ccc(F)cc4)c3c2)C1=O` (racemic) [Example 6, 3-(2-chlorophenyl)-1-(4-fluorophenyl)-N-(1-methyl-2-oxopyrrolidin-3-yl)-1H-indazole-6-carboxamide], the half-maximal inhibitory concentration (IC50) was determined as 686 nM.

For the compound `O=C(NC1CCS(=O)(=O)C1)c1ccc2c(-c3c(F)cccc3F)nn(-c3ccc(F)cc3)c2c1` (single isomer, unassigned) [Example 132-A, 3-(2,6-difluorophenyl)-N-(1,1-dioxidotetrahydro-thiophen-3-yl)-1-(4-fluorophenyl)-1H-indazole-6-carboxamide], the 50% inhibitory concentration (IC50) is 25 nM. The compound `CO[C@@H]1C[C@H](NC(=O)c2ccc3c(-c4ccccc4Cl)nn(-c4ccc(F)cc4)c3c2)[C@H](O)[C@H](C)O1` [Example 111, 3-(2-chlorophenyl)-1-(4-fluorophenyl)-N-((2S,3S,4S,6S)-3-hydroxy-6-methoxy-2-methyltetrahydro-2H-pyran-4-yl)-1H-indazole-6-carboxamide] came in with an IC50 of 194 nM. Compound `O=C(NC(CO)C1CC1)c1ccc2c(-c3ccccc3Cl)nn(-c3ccc(F)cc3)c2c1` (racemic) [Example 78, 3-(2-chlorophenyl)-N-(1-cyclopropyl-2-hydroxyethyl)-1 (4-fluorophenyl)-1H-indazole-6-carboxamide] yielded an IC50 of 353 nM. The same measure for `O=C(N[C@H]1c2ccccc2OC[C@H]1O)c1ccc2c(-c3ccccc3Cl)nn(-c3ccc(F)cc3)c2c1` [Example 71, 3-(2-chlorophenyl)-1-(4-fluorophenyl)-N-[(3S,4S)-3-hydroxy-3,4-dihydro-2H-chromen-4-yl]-1H-indazole-6-carboxamide]: 526 nM.
